From patent publication US11319318B2, “Pyridinones and isoquinolinones as inhibitors of the bromodomain BRD9” (Boehringer Ingelheim International GmbH, priority 2015, dated 2022)

These compounds were tested against T1, bromodomain of BRD9 (GST-BRD9 aa 130-259) / H3 K9/14/18/23Ac(1-28) peptide (Homo sapiens, UniProt Q9H8M2) (assay: BRD9-H3 tetra-acetylated Peptide Inhibition AlphaScreen).
T1 construct: The protein corresponding to amino acids 130-259 that contains the bromodomain of BRD9; made in house; host or cells: E. coli
T1 sequence (Q9H8M2 130-259): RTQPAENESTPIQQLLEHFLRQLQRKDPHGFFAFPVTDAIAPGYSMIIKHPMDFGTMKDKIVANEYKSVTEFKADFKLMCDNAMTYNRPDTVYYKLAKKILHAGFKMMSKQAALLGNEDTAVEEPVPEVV
Format: binding

IC50 | Compound
303 nM | COc1cc(-c2cc(C)c(=O)n(C)c2C)c(OC)cc1CN1CCN(C)CC1 [Compound I-131]
322 nM | COc1cc(-c2cc(C)c(=O)n(C)c2C)cc(OC)c1CN1CCN(C)CC1 [Compound I-132]
387 nM | COc1cc(-c2cc(C)c(=O)n(C)c2C)ccc1CN1C[C@@H]2CC1CN2C [Compound I-133]
394 nM | COc1cc(-c2cc(C)c(=O)n(C)c2C)ccc1CN1CC(OC)C1 [Compound I-134]
851 nM | Cc1cc(-c2cc(C)c(=O)n(C)c2C)ccc1C1(N2CCN(C)CC2)CC1 [Compound I-135]
1920 nM | Cc1cc(-c2cc(C)c(=O)n(C)c2C)ccc1C(=O)N1CCN(C)CC1 [Compound I-136]
834 nM | Cc1c(-c2ccc(CN)cc2)cn(C)c(=O)c1C [Compound I-137, 5-(4-Aminomethyl-phenyl)-1,3,4-trimethyl-1H-pyridin-2-one]
1260 nM | Cc1c(-c2ccc([C@H](C)N)cc2)cn(C)c(=O)c1C [Compound I-138]
1380 nM | Cc1c(-c2ccc([C@@H](C)N)cc2)cn(C)c(=O)c1C [Compound I-139]
880 nM | Cc1cc(-c2ccc(CN)cc2)c(C)n(C)c1=O [Compound I-140]
1860 nM | Cc1cc(-c2ccc([C@@H](C)N)cc2)c(C)n(C)c1=O [Compound I-141]
1960 nM | Cc1cc(-c2ccc([C@H](C)N)cc2)c(C)n(C)c1=O [Compound I-142]
26 nM | COc1cc(-c2cc(C)c(=O)n(C)c2)ccc1COC1CNC1 [Compound I-144]
32 nM | COc1cc(-c2cc(C)c(=O)n(C)c2)cc(OC)c1CNC1CNC1 [Compound I-145]
33 nM | CNC1CN(Cc2c(OC)cc(-c3cc(C)c(=O)n(C)c3)cc2OC)C1 [Compound I-146]
126 nM | COc1cc(S(=O)(=O)N2CCNCC2)c(OC)cc1-c1cc(C)c(=O)n(C)c1 [Compound I-147]
144 nM | COc1cc(-c2cc(C)c(=O)n(C)c2)ccc1S(=O)(=O)N1CCNCC1 [Compound I-148]
160 nM | Cc1cc(-c2ccc(CN3CCNCC3)c(N(C)C)c2)cn(C)c1=O [Compound I-149, 5-(3-Dimethylamino-4-piperazin-1-ylmethyl-phenyl)-1,3-dimethyl-1H-pyridin-2-one]
298 nM | COc1cc(-c2cc(C)c(=O)n(C)c2)c(OC)cc1CN1CCNCC1 [Compound I-150]
26 nM | COc1cc(S(=O)(=O)NC2CNC2)c(OC)cc1-c1cn(C)c(=O)c(C)c1C [Compound I-151]
145 nM | CNCCN(C)S(=O)(=O)c1cc(OC)c(-c2cn(C)c(=O)c(C)c2C)cc1OC [Compound I-152]

IC50 | Compound
29 nM | COc1cc(-c2cc(C)c(=O)n(C)c2C)ccc1COC1CNC1 [Compound I-153]
38 nM | COc1cc(S(=O)(=O)NC2CNC2)c(OC)cc1-c1cc(C)c(=O)n(C)c1C [Compound I-154]
128 nM | CNCCN(C)S(=O)(=O)c1cc(OC)c(-c2cc(C)c(=O)n(C)c2C)cc1OC [Compound I-155]
89 nM | CCc1cc(-c2cc(C)c(=O)n(C)c2)cc(OC)c1C(=O)N1CCNCC1 [Compound I-157, 5-[3-Ethyl-5-methoxy-4-(piperazine-1-carbonyl)-phenyl]-1,3-dimethyl-1H-pyridin-2-one]
167 nM | COc1cc(-c2cc(C)c(=O)n(C)c2)cc(C)c1C(=O)N1CCNCC1 [Compound I-159]
550 nM | Cc1cc(C(=O)N2CCNCC2)ccc1-c1cc(C)c(=O)n(C)c1 [Compound I-163]
64 nM | COc1cc(-c2cc(I)c(=O)n(C)c2)ccc1C(=O)N1CCNCC1 [Compound I-164, 3-Iodo-5-[3-methoxy-4-(piperazine-1-carbonyl)-phenyl]-1-methyl-1H-pyridin-2-one]
230 nM | COc1cc(-c2cc(I)c(=O)n(C)c2)ccc1C(=O)N1CCN(C)CC1 [Compound I-166]
41 nM | COc1cc(-c2cn(C)c(=O)c(I)c2C)cc(OC)c1CN(C)C [Compound I-167]
40 nM | COc1cc(-c2cc(I)c(=O)n(C)c2C)cc(OC)c1CN(C)C [Compound I-168]
1320 nM | Cc1cc(-c2ccc(C(=O)N3CCN(C)CC3)c(OC(F)(F)F)c2)cn(C)c1=O [Compound I-177, 1,3-Dimethyl-5-[4-(4-methyl-piperazine-1-carbonyl)-3-trifluoromethoxy-phenyl]-1H-pyridin-2-one]
187 nM | Cc1cc(-c2ccc(CN3CC(O)C3)cc2)cn(C)c1=O [Compound I-179, 5-[4-(3-Hydroxy-azetidin-1-ylmethyl)-phenyl]-1,3-dimethyl-1H-pyridin-2-one]
870 nM | Cc1cc(-c2ccc(CN3CCCC3)cc2)cn(C)c1=O [Compound I-180]
1000 nM | CNCc1ccc(-c2cc(C)c(=O)n(C)c2)cc1 [Compound I-181]
1050 nM | Cc1cc(-c2ccc(CN3CCCCC3)cc2)cn(C)c1=O [Compound I-182]
1320 nM | Cc1cc(-c2ccc(CN3CC4CCC3C4)cc2)cn(C)c1=O (stereo not drawn) [Compound I-184]
1550 nM | Cc1cc(-c2ccc(Cn3ccnc3)cc2)cn(C)c1=O [Compound I-185]
967 nM | Cc1cc(-c2cc(C)c(=O)n(C)c2)c(C)cc1CN1CCNCC1 [Compound I-186, 5-(2,5-Dimethyl-4-piperazin-1-ylmethyl-phenyl)-1,3-dimethyl-1H-pyridin-2-one]
4300 nM | Cc1cc(-c2cc(C)c(=O)n(C)c2)c(C)cc1CN1CCN(C)CC1 [Compound I-187]
458 nM | Cc1cc(-c2ccc(CN3CCN(C)CC3)c(O)c2)cn(C)c1=O [Compound I-194, 5-[3-Hydroxy-4-(4-methyl-piperazin-1-ylmethyl)-phenyl]-1,3-dimethyl-1H-pyridin-2-one]
369 nM | COCCOc1cc(-c2cc(C)c(=O)n(C)c2)ccc1CN1CCN(C)CC1 [Compound I-195, 5-[3-(2-Methoxy-ethoxy)-4-(4-methyl-piperazin-1-ylmethyl)-phenyl]-1,3-dimethyl-1H-pyridin-2-one]

IC50 | Compound
1010 nM | Cc1cc(-c2ccc(CN3CCN(C)CC3)c(OC(C)C)c2)cn(C)c1=O [Compound I-196]
468 nM | CCOc1cc(-c2cc(C)c(=O)n(C)c2)ccc1CN1CCN(C)CC1 [Compound I-197, 5-[3-Ethoxy-4-(4-methyl-piperazin-1-ylmethyl)-phenyl]-1,3-dimethyl-1H-pyridin-2-one]
71 nM | COc1cc(-c2cc(C)c(=O)n(C)c2)ccc1CN1CCN(Cc2cccc(N)c2)CC1 [Compound I-198, 5-{4-[4-(3-Amino-benzyl)-piperazin-1-ylmethyl]-3-methoxy-phenyl}-1,3-dimethyl-1H-pyridin-2-one]
55 nM | COc1cc(-c2cc(C)c(=O)n(C)c2)ccc1CN1CCN(Cc2ccc3nc[nH]c3c2)CC1 [Compound I-199]
132 nM | COc1cc(-c2cc(C)c(=O)n(C)c2)ccc1CN1CCN(Cc2cccc(O)c2)CC1 [Compound I-200]
268 nM | COc1cc(-c2cc(C)c(=O)n(C)c2)cc(C)c1CN [Compound I-202, 5-(4-Aminomethyl-3-methoxy-5-methyl-phenyl)-1,3-dimethyl-1H-pyridin-2-one]
231 nM | Cc1cc(-c2ccc(CN3CCN(C)CC3)c(N(C)C)c2)cn(C)c1=O [Compound I-204, 5-[3-Dimethylamino-4-(4-methyl-piperazin-1-ylmethyl)-phenyl]-1,3-dimethyl-1H-pyridin-2-one]
69 nM | COc1cc(-c2cc(C)c(=O)n(C)c2)cc(OC)c1CNC1CN(C)C1 [Compound I-205, 5-{3,5-Dimethoxy-4-[(1-methyl-azetidin-3-ylamino)-methyl]-phenyl}-1,3-dimethyl-1H-pyridin-2-one]
479 nM | COc1cc(-c2cc(C)c(=O)n(C)c2)ccc1CN1CC(N(C)C)C1 [Compound I-206, 5-[4-(3-Dimethylamino-azetidin-1-ylmethyl)-3-methoxy-phenyl]-1,3-dimethyl-1H-pyridin-2-one]
93 nM | COc1cc(-c2cc(C)c(=O)n(C)c2)cc(OC)c1CN(C)C1CNC1 [Compound I-207, 5-{4-[(Azetidin-3-yl-methyl-amino)-methyl]-3,5-dimethoxy-phenyl}-1,3-dimethyl-1H-pyridin-2-one]
114 nM | COc1cc(-c2cc(C)c(=O)n(C)c2)cc(OC)c1CN(C)C1CN(C)C1 [Compound I-208, 5-(3,5-Dimethoxy-4-{[methyl-(1-methyl-azetidin-3-yl)-amino]-methyl}-phenyl)-1,3-dimethyl-1H-pyridin-2-one]
218 nM | Cc1cc(-c2ccc3c(c2)CN(C)C3)cn(C)c1=O [Compound I-209, 1,3-Dimethyl-5-(2-methyl-2,3-dihydro-1H-isoindol-5-yl)-1H-pyridin-2-one]
302 nM | Cc1cc(-c2ccc3c(c2)CCN(C)C3)cn(C)c1=O [Compound I-210]
468 nM | Cc1cc(-c2ccc3c(c2)CCN(C)C3)c(C)n(C)c1=O [Compound I-211]
750 nM | Cc1cc(-c2ccc3c(c2)CN(C)C3)c(C)n(C)c1=O [Compound I-212]
5320 nM | Cc1c(-c2ccc(C(N)=O)cc2)cn(C)c(=O)c1C [Compound I-213]
3210 nM | Cc1cc(-c2ccc(C(=O)N3CCN(C)CC3)cc2)c(C)n(C)c1=O [Compound I-214]
9200 nM | Cc1cc(-c2ccc(N3CCOCC3)cc2)c(C)n(C)c1=O [Compound I-215]
8 nM | COc1cc(-c2cn(C)c(=O)c3ccccc23)cc(OC)c1CN1CC(O)C1 [II-1, 4-[4-(3-Hydroxy-azetidin-1-ylmethyl)-3,5-dimethoxy-phenyl]-2-methyl-2H-isoquinolin-1-one]

Compound | IC50
COc1cc(-c2cc(C)c(=O)n(C)c2C)c(OC)cc1CN1CCNCC1 [Compound I-156] | 1780 nM
COc1cc(-c2cc(C)c(=O)n(C)c2)ccc1CN1CC(Cl)C1 [Compound I-178, 5-[4-(3-Chloro-azetidin-1-ylmethyl)-3-methoxy-phenyl]-1,3-dimethyl-1H-pyridin-2-one] | 38 nM
